This is an account of results in ChEMBL document CHEMBL1201862, “PubChem BioAssay data set” (2004).

Test [1] deals with T1, Beta-lactamase (Pseudomonas aeruginosa, UniProt Q79MP6). Put plainly: inhibition of IMP-1 beta-lactamase activity – biochemical, epi-absorbance, selectivity assay for VIM-2 inhibitor project, dose response (AID 1920).
Test [2] concerns the target T1, Beta-lactamase. Description: […] counterscreen for selective VIM-2 inhibitors: dose response biochemical high throughput screening assay to identify inhibitors of IMP-1 metallo-beta-lactamase. For orientation: Counterscreens check selectivity or assay interference.
For test [3], the target named is T2, Beta-lactamase (Salmonella choleraesuis (strain SC-B67), UniProt Q5J463). Description: Epi-absorbance-based counterscreen for selective VIM-2 inhibitors: dose response biochemical high throughput screening assay to identify inhibitors of TEM-1 serine-beta-lactamase.
Test [4] addresses Fructose-bisphosphate aldolase (Mycobacterium tuberculosis, UniProt P9WQA3). Description: Fluorescence-based biochemical high throughput dose response assay for inhibitors of the fructose-bisphosphate aldolase (FBA) of M. tuberculosis. In kind it is functional.
A short description of test [5]: alpha-synuclein stem-loop luciferase translation blockers – H4 neuroglioma cells, luminescence, confirmation (AID 1988). It counts as functional, cell-based.
The target of test [6] is T3, Voltage-gated N-type calcium channel alpha-1B subunit/Amyloid beta A4 precursor protein-binding family A member 1 (Homo sapiens, UniProt Q00975+Q02410). It counts as protein assay.
Test [7] is described as follows: Luminescence Cell-Based Dose Response HTS to Identify Inhibitors of 5'UTR Stem-Loop Driven Prion Protein mRNA Translation in H4 Neuroglioblastoma Cells. [Related pubchem assays: 1827 (Project Summary), 1813 (Primary HTS)]. In kind it is functional.
The nature of test [8]: viability loss in HEK293T cells – cell-based, cherry-picks, cytotoxicity control for HIV Vif inhibitor project, dose response (AID 652208). In kind it is functional.
Test [9] can be described thus: luciferase reporter signal suppression in cells – H4 neuroglioma cells, luminescence, dose response (AID 1990). In kind it is functional, cell-based.
Test [10] concerns the target T3, Voltage-gated N-type calcium channel alpha-1B subunit/Amyloid beta A4 precursor protein-binding family A member 1. It counts as protein assay. This is another data set of the same source.
Test [11] has as its target T1, Beta-lactamase.
In test [12] the target is T2, Beta-lactamase.
Test [13] addresses Albumin (Bos taurus, UniProt P02769). Put plainly: Counterscreen for inhibitors of T-cell receptor (TCR)-CD3 interaction: Fluorescence-based biochemical high throughput dose response assay to identify inhibitors of T-cell receptor (TCR)-CD3 interaction using a TAMRA-labeled BSA probe. It counts as functional.
A short description of test [14]: Counterscreen for AddAB inhibitors: absorbance-based bacterial cell-based high throughput dose response assay for inhibitors of bacterial viability. [Related pubchem assays (depositor defined):AID435030, AID449728, AID449731, AID488942, AID488955, AID488956]. It counts as functional.
For test [15], the target named is T4, Exodeoxyribonuclease V (Escherichia coli (strain K12), UniProt P04993+P07648+P08394).
T4 sequence (P04993 whole entry): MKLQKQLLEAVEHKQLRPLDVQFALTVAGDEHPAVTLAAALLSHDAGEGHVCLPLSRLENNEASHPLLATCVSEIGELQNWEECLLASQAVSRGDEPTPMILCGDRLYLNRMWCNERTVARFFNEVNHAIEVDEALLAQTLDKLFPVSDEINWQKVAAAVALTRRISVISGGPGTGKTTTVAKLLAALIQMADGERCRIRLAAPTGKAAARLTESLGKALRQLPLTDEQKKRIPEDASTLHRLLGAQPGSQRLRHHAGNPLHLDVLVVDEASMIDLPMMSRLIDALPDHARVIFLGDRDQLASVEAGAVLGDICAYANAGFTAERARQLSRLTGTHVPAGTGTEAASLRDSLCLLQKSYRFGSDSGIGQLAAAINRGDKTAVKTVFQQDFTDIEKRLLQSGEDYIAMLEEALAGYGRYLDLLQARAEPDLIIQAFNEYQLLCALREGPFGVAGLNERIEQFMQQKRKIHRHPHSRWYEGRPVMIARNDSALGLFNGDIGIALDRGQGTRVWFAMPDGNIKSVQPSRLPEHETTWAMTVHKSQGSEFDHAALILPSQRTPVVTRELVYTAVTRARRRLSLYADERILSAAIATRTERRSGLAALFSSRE
T4 sequence (P07648 whole entry): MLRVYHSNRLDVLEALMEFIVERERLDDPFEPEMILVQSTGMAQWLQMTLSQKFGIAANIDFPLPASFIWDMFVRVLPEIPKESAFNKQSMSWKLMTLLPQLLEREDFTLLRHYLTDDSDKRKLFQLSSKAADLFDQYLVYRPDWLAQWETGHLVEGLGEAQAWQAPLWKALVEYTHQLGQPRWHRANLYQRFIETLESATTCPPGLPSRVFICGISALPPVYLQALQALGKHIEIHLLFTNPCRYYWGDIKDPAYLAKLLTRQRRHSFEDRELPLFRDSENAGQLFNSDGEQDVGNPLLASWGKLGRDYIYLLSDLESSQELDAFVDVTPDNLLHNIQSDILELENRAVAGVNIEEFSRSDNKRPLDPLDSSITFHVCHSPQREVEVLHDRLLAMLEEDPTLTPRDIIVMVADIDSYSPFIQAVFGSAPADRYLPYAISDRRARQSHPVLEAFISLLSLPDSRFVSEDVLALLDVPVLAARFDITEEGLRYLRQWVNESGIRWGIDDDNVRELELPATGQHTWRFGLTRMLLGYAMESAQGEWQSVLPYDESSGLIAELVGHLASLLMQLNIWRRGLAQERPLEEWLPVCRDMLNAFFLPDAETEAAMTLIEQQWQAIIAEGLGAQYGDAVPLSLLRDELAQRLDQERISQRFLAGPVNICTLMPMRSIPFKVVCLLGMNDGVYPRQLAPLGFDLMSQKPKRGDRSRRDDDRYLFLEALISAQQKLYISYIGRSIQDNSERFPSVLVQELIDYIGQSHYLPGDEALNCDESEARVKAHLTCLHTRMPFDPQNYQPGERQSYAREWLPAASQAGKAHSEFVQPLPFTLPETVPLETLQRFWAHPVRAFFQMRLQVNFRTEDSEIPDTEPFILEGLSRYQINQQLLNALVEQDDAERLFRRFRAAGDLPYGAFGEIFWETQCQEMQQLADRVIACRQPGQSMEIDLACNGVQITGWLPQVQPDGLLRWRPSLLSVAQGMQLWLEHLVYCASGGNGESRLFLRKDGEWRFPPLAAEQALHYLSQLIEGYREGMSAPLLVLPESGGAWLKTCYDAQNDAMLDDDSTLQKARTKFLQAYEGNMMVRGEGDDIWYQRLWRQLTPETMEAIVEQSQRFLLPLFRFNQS
T4 sequence (P08394 whole entry): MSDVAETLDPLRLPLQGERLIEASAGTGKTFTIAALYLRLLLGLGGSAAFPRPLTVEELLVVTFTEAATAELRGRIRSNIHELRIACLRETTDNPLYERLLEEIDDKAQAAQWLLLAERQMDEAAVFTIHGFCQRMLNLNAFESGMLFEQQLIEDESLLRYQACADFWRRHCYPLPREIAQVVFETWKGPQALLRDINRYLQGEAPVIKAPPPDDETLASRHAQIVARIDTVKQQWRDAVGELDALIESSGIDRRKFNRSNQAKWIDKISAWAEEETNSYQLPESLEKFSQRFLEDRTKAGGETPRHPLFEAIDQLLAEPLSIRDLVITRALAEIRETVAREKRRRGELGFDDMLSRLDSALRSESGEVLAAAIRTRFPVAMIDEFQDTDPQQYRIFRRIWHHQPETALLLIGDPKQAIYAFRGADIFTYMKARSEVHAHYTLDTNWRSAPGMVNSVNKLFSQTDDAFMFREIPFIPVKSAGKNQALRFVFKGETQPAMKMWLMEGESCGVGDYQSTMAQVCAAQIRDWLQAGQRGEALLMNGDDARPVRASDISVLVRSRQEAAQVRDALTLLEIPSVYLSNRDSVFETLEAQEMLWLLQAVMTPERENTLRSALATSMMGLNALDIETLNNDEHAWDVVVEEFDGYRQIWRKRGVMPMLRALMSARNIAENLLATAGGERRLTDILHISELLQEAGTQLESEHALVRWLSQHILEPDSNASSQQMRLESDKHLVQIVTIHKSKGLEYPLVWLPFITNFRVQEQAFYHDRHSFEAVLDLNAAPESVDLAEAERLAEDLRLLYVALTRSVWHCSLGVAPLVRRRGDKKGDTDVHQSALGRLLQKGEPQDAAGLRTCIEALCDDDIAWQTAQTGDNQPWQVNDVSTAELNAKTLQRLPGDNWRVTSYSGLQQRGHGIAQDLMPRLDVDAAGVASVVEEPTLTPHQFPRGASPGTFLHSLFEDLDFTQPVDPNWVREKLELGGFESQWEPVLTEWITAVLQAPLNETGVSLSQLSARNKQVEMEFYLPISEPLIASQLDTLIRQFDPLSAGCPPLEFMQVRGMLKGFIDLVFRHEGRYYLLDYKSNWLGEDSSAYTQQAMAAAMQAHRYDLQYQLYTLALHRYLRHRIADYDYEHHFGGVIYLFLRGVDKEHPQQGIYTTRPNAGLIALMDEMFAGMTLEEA
Put plainly: RecBCD inhibition via phage-restricted bacterial growth – absorbance, V66 E. coli, mutant T4 phage, counter-screen for AddAB inhibitor project, dose response (AID 492957). It counts as functional, cell-based, Escherichia coli str. K-12 substr. MG1655.

Test [16] relates to HEK293. Description: viability loss in HEK293T cells – cell-based, ATP luminescence, cherry-pick samples, cytotoxicity control, dose response (AID 687005).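 Note: cells exposed to compound for 48 hours.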 The settings on record: Homo sapiens. In kind it is functional.
The nature of test [17]: HEK293 Cytotoxicity Assay Measured in Cell-Based System Using Plate Reader - 7071-01_Inhibitor_Dose_CherryPick_Activity_Set2. In kind it is functional.
Test [18] relates to HeLa. Description: viability loss in HeLa cells – cell-based, ATP luminescence, cherry-pick samples, cytotoxicity control, dose response (AID 687004). It counts as functional. Conditions: Homo sapiens.
The nature of test [19]: intracellular Trypanosoma cruzi inhibitors in host cells – cell-based, plate reader, cherry-pick samples, set 3, dose response (AID 651818).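 Note: compounds incubated with infected cells for about four days.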 In kind it is functional.
The nature of test [20]: cell viability loss, ATP luminescence – CellTiter-Glo, 24 h, powder samples, set 7, cytotoxicity control for SR-BI HDL uptake inhibitor project, dose response (AID 624026). It counts as functional, cell-based. Background: In ATP-based viability assays light output follows the ATP content of the culture.
Test [21] deals with T5, Scavenger receptor class B member 1 (Mus musculus, UniProt Q61009). Description: mouse SR-BI DiI-HDL transfer blockers – ldlA[mSR-BI] CHO cells, fluorescence plate reader, dry powder, set 9, dose response (AID 623880). In kind it is functional, cell-based.
Test [22] deals with T5, Scavenger receptor class B member 1. Description: blockers of DiI-HDL lipid transfer via SR-BI – cell-based, ldlA[mSR-BI] CHO, DiI fluorescence, dry powder, set 10, dose response (AID 624029). It counts as functional.
Test [23] has as its target Nuclear receptor subfamily 5 group A member 2 (Homo sapiens, UniProt O00482). It counts as functional, cell-based.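 Note: HEK293T cells transfected with LRH-1 and a StAR promoter luciferase reporter; potency for inhibitors that lower LRH-1 driven reporter light.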
Test [24] is described as follows: nonselective StAR promoter luciferase inhibitors – cell-based, luminescence, luciferase reporter, counter-screen for LRH-1 inverse agonist project, dose response (AID 651969). In kind it is functional.
Test [25] deals with Steroidogenic factor 1 (Homo sapiens, UniProt Q13285). Description: Counterscreen for inverse agonists of the liver receptor homolog-1 (LRH-1; NR5A2): Luminescence-based cell-based high throughput dose response assay to identify inverse agonists of the Steroidogenic Factor 1 Nuclear Receptor (SF1; NR5A1). It counts as functional.

As a reminder, the IC50 is the concentration that gives 50% inhibition. What is called EC50 is the concentration giving half of the maximal effect. Broadly, the AC50 is the midpoint of the concentration-response curve, whichever way the signal moves.

Calls of active or inactive are those of the source.

T1 sequence (Q79MP6 whole entry): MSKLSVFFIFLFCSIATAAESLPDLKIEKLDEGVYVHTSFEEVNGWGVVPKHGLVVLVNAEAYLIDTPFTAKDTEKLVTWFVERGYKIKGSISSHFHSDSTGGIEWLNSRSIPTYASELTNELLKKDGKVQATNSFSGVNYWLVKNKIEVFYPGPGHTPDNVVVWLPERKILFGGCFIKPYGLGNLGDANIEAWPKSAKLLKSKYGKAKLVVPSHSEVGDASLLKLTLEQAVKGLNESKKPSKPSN
T3 sequence (Q00975 whole entry): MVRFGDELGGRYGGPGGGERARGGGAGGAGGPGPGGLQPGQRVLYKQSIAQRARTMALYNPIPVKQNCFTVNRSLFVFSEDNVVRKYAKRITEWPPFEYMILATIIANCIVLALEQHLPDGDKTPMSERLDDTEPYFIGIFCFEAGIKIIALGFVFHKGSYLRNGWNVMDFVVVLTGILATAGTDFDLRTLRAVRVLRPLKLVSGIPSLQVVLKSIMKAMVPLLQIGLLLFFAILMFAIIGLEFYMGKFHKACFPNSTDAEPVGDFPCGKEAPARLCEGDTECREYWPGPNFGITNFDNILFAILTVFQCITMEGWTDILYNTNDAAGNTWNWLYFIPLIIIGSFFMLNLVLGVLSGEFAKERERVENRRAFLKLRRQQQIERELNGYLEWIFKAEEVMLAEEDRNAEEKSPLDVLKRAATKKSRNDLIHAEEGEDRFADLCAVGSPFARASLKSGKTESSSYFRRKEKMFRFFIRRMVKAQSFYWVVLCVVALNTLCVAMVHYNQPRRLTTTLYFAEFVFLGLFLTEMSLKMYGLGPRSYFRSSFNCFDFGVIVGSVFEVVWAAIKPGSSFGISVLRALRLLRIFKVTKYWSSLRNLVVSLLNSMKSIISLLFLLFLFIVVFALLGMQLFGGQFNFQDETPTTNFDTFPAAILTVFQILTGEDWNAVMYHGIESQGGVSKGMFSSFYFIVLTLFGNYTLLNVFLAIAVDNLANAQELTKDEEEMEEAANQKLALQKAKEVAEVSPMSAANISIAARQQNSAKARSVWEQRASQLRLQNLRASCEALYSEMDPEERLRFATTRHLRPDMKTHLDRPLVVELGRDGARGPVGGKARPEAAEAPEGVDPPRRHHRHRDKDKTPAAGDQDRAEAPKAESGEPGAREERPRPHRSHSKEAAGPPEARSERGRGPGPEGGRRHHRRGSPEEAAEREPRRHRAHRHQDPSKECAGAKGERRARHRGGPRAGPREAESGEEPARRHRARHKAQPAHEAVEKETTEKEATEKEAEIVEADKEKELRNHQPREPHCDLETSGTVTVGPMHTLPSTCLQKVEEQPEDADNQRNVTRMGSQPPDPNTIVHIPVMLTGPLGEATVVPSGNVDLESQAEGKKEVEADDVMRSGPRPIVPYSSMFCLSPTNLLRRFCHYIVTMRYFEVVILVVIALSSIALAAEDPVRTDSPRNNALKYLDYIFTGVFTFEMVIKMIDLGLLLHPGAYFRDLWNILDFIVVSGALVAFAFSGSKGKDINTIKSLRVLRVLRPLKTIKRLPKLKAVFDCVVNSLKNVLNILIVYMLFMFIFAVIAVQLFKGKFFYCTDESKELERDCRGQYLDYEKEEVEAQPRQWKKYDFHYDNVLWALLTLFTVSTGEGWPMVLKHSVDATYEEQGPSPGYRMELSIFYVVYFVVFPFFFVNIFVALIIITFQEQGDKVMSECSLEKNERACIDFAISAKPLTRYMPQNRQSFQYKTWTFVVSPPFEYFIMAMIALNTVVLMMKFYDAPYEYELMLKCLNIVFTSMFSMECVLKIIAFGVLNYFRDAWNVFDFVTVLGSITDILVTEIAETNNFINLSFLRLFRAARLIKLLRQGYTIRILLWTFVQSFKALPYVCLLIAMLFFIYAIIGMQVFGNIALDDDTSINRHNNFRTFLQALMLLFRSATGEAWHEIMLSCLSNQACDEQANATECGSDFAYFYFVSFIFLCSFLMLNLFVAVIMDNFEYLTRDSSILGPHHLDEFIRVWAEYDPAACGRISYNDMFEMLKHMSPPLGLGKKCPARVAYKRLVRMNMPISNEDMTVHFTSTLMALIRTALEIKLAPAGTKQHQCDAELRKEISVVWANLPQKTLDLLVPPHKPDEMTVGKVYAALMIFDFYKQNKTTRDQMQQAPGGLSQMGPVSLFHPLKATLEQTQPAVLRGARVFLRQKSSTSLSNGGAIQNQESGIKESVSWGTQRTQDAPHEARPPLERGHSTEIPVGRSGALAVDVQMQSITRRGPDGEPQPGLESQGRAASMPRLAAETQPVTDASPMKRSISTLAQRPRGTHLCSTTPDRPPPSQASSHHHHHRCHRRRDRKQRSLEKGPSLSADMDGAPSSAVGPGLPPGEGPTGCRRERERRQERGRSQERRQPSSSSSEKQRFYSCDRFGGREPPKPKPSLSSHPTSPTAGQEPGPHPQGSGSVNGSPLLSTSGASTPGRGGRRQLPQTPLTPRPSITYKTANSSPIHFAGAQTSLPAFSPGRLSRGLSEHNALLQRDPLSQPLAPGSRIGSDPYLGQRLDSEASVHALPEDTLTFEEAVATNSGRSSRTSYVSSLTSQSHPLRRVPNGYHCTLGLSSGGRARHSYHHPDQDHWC
T3 sequence (Q02410 whole entry): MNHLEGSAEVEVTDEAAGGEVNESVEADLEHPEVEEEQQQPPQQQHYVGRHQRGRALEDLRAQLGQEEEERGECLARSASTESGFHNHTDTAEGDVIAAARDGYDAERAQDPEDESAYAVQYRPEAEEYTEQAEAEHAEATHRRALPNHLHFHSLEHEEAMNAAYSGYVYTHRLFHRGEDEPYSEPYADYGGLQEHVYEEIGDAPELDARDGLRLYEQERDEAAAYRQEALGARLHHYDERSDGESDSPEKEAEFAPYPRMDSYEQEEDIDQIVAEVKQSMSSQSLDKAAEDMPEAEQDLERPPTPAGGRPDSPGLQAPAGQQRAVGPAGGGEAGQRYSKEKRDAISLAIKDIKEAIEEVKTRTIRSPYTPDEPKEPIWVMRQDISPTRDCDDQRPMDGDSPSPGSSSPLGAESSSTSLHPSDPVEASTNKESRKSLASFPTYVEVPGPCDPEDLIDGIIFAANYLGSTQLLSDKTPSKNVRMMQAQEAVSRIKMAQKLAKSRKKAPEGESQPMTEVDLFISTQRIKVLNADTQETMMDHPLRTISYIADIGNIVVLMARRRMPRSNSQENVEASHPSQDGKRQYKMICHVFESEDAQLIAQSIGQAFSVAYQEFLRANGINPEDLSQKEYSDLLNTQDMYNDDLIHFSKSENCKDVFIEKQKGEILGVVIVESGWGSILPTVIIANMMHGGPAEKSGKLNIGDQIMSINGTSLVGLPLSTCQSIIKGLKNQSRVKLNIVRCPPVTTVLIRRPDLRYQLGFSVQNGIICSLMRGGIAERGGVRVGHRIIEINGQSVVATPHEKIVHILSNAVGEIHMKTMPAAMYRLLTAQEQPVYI
T2 sequence (Q5J463 whole entry): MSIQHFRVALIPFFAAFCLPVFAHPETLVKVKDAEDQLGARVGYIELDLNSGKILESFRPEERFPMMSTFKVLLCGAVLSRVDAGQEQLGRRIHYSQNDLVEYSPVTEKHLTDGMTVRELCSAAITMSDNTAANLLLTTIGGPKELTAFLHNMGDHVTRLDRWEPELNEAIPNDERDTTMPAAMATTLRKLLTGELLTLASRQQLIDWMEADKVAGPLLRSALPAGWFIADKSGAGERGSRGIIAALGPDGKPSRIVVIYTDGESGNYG
T5 sequence (Q61009 whole entry): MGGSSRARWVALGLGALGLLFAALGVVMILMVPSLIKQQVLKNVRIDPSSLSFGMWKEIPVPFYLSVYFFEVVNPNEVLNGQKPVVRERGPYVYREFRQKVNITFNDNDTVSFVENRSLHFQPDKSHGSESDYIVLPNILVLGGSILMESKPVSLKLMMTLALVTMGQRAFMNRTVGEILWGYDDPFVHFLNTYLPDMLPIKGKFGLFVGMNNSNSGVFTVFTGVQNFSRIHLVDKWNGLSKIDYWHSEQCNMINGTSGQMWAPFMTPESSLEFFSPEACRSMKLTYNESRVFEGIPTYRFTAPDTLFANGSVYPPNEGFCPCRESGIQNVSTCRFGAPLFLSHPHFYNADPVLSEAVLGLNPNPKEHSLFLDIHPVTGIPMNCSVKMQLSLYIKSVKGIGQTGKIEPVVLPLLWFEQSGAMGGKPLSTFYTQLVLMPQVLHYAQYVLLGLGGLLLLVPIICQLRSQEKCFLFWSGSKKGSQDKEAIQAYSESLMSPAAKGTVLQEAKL
Fructose-bisphosphate aldolase, sequence (P9WQA3 whole entry): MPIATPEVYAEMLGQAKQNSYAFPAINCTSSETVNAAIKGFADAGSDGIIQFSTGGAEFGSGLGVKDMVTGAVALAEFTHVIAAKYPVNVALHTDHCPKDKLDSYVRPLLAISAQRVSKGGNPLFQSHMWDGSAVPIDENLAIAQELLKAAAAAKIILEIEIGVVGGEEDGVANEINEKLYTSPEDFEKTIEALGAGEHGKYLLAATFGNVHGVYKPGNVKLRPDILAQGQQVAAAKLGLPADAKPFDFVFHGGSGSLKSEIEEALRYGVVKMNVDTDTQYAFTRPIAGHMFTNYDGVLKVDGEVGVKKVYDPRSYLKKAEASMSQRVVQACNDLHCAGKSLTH
Steroidogenic factor 1, sequence (Q13285 whole entry): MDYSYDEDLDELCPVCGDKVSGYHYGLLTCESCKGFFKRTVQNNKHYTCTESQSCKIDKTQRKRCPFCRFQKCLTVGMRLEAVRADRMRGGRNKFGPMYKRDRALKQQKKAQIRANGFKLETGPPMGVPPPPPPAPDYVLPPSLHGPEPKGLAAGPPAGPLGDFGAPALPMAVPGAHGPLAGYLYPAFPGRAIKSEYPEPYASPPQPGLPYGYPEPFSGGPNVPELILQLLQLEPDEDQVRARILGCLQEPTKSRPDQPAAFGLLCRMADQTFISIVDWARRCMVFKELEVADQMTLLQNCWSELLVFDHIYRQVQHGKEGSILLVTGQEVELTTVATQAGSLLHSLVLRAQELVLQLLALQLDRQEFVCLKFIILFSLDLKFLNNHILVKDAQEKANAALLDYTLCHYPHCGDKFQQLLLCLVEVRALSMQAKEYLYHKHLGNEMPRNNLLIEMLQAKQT

For the molecule `CC(=O)c1ccc(-c2ccc(Cn3c(C)nc4cc(N)c(C)nc43)cc2)cc1`, the IC50 in test [1], in test [2] and in [3] was > 59.6 µM (inactive) in each case.

Turning to `CCCNC(=O)c1c(N)n(-c2ccc(S(N)(=O)=O)cc2)c2nc3ccccc3nc12`, in test [4], the IC50 is 0.673 µM (active).

Consider `CCOC(=O)c1cc(-c2ccccc2)sc1NC(=O)COC(=O)c1cccc(S(N)(=O)=O)c1`, for which the results for the EC50 in test [5], in test [7] and in test [9] were 12.8 µM (active), > 120 µM (not active) and 13.4 µM (active), respectively. Further, the IC50 in test [6] is > 50 µM (inactive); in test [10], 4.51 µM (active). In addition, the half-maximal activity concentration (AC50) in test [8] is 21.3 µM (active).

Regarding `CCN(CC)c1ccc2cc(C=O)c(=O)oc2c1`, the results for the IC50 in test [11] and in test [12] were 57.9 µM (inactive) and 26.7 µM (inactive), respectively.

Take `COc1ccc(/C=C2\SC(=O)N(CC(=O)NNC(=O)c3ccccc3O)C2=O)cc1OC`: the IC50 in [13] was > 94.1 µM (inactive); in test [14], > 119 µM (inactive); in [15] it was > 119 µM (inactive).

For the molecule `C[C@H](CO)N1C[C@H](C)[C@H](CN(C)Cc2ccc(-c3ccccc3)cc2)Oc2c(NC(=O)c3ccncc3)cccc2C1=O`, the AC50 is 14.2 µM (active) in [16], 14.2 µM (active) in test [17], > 52 µM (inactive) in test [18] and 0.08 µM (active) in [19].

With `CC(C)(C)OC(=O)N1CCN(c2ccc(NC(=O)c3cc([N+](=O)[O-])ccc3Cl)cc2)CC1`, the values for the AC50 in test [20], in [21] and in [22] were > 70 µM (inactive), 0.503 µM (active) and 0.953 µM (active), respectively.

For the molecule `COc1cc(/C=N/n2nnnc2N)ccc1OCc1c(C)no[n+]1[O-]`, the IC50 was 12.4 µM (inactive) in test [23], 35.9 µM (inactive) in test [24] and 6.23 µM (active) in [25].
